Assay results from article PMC8578635 (Nature Communications, 2021).

Experiments:
TOP2A [1] = target: T1, TOP2A (Homo sapiens, UniProt P11388); experiment: kDNA decatenation and pBR322 relaxation assays with purified human topoisomerase II; band depletion in CHP-134 cells; assay type: biochemical
[2] = target: topoisomerase II beta (TOP2B) (Homo sapiens, UniProt Q02880); experiment: kDNA decatenation and pBR322 relaxation assays with purified human topoisomerase II; assay type: biochemical
TOP2A [3] = target: T1, TOP2A; experiment: as above
TOP2A [4] = target: T1, TOP2A; experiment: kDNA decatenation and pBR322 relaxation assays with purified human topoisomerase II; supported by band depletion and RADAR TOP2cc assays in cells; assay type: biochemical

T1 sequence (P11388 whole entry): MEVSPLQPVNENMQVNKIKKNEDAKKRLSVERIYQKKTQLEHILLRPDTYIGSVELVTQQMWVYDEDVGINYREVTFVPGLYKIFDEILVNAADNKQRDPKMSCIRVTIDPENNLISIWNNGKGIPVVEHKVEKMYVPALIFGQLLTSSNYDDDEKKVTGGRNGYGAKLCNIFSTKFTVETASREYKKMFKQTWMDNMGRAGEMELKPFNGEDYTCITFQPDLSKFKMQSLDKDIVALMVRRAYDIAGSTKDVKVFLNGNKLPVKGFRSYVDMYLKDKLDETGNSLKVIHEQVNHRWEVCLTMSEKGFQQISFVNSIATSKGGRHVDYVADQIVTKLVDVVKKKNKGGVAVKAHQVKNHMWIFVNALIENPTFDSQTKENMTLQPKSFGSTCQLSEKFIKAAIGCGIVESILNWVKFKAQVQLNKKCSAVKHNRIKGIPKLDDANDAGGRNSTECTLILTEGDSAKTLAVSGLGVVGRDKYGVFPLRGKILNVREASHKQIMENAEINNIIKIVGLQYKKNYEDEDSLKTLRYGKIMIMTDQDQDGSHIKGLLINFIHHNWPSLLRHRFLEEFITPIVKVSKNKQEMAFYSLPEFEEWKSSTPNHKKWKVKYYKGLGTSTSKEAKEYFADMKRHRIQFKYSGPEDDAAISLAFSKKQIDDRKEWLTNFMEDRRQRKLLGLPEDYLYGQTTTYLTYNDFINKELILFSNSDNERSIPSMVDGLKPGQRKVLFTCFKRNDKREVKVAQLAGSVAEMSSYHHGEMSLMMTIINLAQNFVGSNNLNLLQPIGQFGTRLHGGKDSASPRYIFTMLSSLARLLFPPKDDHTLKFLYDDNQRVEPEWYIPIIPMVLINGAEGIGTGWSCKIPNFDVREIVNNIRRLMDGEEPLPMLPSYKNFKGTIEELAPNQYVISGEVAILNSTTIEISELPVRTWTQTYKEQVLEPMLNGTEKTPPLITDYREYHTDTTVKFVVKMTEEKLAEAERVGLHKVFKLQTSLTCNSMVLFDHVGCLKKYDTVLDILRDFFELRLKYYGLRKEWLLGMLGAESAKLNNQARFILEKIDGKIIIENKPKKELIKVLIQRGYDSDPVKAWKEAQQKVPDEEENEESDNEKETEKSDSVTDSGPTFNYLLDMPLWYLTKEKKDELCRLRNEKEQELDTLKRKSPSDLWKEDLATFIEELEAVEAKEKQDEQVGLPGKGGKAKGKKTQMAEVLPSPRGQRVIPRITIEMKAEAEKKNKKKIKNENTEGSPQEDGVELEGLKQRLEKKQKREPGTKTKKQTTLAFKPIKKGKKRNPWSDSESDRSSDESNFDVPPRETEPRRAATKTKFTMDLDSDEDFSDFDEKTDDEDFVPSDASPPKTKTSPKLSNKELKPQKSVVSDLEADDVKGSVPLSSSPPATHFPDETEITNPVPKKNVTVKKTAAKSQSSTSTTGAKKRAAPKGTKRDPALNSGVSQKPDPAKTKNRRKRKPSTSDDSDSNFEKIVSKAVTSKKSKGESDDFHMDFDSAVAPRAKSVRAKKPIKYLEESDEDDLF
topoisomerase II beta (TOP2B), sequence (Q02880 2-1626): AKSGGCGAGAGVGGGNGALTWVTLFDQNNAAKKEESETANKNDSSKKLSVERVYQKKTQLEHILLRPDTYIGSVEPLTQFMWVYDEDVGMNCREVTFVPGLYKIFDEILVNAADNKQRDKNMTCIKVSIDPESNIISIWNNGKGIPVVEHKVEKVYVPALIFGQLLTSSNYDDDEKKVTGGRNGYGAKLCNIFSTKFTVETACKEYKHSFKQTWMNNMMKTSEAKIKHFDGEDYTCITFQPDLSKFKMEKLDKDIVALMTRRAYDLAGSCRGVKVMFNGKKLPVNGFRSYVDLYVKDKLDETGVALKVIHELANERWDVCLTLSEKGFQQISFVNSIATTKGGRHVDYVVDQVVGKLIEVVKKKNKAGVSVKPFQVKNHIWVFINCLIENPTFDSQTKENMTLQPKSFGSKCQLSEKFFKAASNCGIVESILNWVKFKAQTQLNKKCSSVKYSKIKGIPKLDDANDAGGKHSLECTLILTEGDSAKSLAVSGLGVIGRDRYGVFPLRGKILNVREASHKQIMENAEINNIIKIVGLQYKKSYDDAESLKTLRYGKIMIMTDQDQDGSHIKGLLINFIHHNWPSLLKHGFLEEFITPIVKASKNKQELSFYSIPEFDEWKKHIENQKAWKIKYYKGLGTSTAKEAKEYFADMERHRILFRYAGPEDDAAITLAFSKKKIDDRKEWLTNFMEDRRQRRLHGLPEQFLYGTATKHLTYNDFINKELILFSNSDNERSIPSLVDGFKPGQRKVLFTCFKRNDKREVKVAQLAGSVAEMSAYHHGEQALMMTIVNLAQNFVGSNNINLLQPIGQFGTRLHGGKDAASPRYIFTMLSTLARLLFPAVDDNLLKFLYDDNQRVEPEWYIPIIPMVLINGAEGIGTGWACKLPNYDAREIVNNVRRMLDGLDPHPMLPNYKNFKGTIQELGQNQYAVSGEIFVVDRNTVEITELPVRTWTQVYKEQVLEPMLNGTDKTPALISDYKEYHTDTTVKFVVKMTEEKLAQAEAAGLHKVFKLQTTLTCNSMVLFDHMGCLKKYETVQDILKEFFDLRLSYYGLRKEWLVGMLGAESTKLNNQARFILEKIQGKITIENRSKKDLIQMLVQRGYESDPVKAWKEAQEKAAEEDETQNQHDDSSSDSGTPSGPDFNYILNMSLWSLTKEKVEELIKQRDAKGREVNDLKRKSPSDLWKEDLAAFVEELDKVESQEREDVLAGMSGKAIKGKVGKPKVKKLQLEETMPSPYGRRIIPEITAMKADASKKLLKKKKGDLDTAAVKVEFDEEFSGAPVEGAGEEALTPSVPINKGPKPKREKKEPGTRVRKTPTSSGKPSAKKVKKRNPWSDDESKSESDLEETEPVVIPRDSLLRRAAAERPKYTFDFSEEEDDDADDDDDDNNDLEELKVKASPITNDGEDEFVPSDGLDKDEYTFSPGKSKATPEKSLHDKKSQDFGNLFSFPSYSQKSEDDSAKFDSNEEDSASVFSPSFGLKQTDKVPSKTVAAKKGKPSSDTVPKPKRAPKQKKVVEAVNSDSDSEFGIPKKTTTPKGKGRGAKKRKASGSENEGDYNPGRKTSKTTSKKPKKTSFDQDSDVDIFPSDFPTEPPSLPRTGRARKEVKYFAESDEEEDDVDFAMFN

COc1cccc2c1C(=O)c1c(O)c3c(c(O)c1C2=O)C[C@@](O)(C(=O)CO)C[C@@H]3O[C@H]1C[C@H](N)[C@H](O)[C@H](C)O1 [doxorubicin]
kDNA decatenation and pBR322 relaxation assays with purified human topoisomerase (TOP2A [1]): Etoposide and doxorubicin had similar activity against both paralogs.

COc1cc([C@@H]2c3cc4c(cc3[C@@H](O[C@@H]3O[C@@H]5CO[C@@H](C)O[C@H]5[C@H](O)[C@H]3O)[C@H]3COC(=O)[C@H]23)OCO4)cc(OC)c1O [etoposide]
kDNA decatenation and pBR322 relaxation assays with purified human topoisomerase [2]: Etoposide and doxorubicin had similar activity against both paralogs. | kDNA decatenation and pBR322 relaxation assays with purified human topoisomerase (TOP2A [3]): Etoposide and doxorubicin had similar activity against both paralogs.

Cc1cnc(CNC(=O)c2c(=O)c3ccc(N4CCCN(C)CC4)nc3n3c2sc2ccccc23)cn1 [CX-5461]
kDNA decatenation and pBR322 relaxation assays with purified human topoisomerase (TOP2A [4]): CX-5461 inhibited the activity of both TOP2A and TOP2B—strikingly at concentrations substantially lower than etoposide
